In US20240059698A1 (Accutar Biotechnology Inc., priority 2022, published 2024):

Columns and labels:
Type in all cases: cell-based
[1] = tested on: HCC827-SVD cells (human EGFR exon 20 insertion mutant D770_N771insSVD); test: Cell growth inhibition (CellTiter-Glo), HCC827-SVD; conditions: 72 h, 3 days
Procedure: (§1) Generation of HCC827-SVD, HCC827-ASV, and HCC827-YVMA cell lines. The HCC827-SVD cell line was generated by first transducing HCC827 cells (ATCC) with lentiviral particles expressing codon-optimized human EGFR exon 20 insertion mutant D770_N771insSVD, and then selecting under 5 µg/mL puromycin treatment for a week. The resulting cells were further transduced with lentiviral particles carrying EGFR sgRNA and CAS9 to knockout the endogenous alleles of EGER and then selected under 500 µg/mL hygromycin B treatment for two weeks. The limiting dilution approach was used to subsequently generate the single clone of the HCC827-SVD stable cell line. Endogenous EGFR knockout was confirmed by Sanger sequencing of cell genomic DNA, and expression of exogenous mutant EGFR was verified by Western blot analysis.
(§2) 2. Cell Growth Inhibition for HCC827, HCC827-SVD, HCC827-ASV, HCC827-YVMA, and A431.
(§3) HCC827(ATCC), HCC827-SVD, HCC827-ASV, and HCC827-YVMA cells were seeded in 96-well plates at 5000 cells/well in 90 μL of RPMI growth medium containing 10% FBS and 1% Penicillin Streptomycin. A431 (ATCC) cells were seeded in 96-well plates at 5000 cells/well in 90 μL of DMEM growth medium containing 10% FBS and 1% Penicillin Streptomycin. Cells were incubated at 37° C. overnight and then administered with 10 μL 10× test compounds prepared in the growth medium at various concentrations. After administration of the compounds, cells were incubated at 37° C. for 3 days. Before the CellTiter-Glo assay, the plates were equilibrated at room temperature for approximately 30 minutes. 100 ul of CellTiter-Glo reagent (Promega) was added to each well. The plates were then incubated at room temperature for 10 minutes and luminescence was recorded by the EnSight® multimode plate reader (PerkinElmer). Table 7 listed selected compounds in cellular growth assay.

[2] = tested on: HCC827-YVMA cells (human ERBB2 exon20 insertion mutant A775_G776ins YVMA); test: Cell growth inhibition (CellTiter-Glo), HCC827-YVMA; conditions: 72 h, HCC827-YVMA cells, 3 days, CellTiter-Glo, read-out: Cell growth inhibition, GI50 (nM) HCC827-YVMA
Procedure: as §1
HCC827-ASV and HCC827-YVMA cell lines were generated in a similar approach as HCC827-SVD, except that HCC827 cells (ATCC) were first transduced with lentiviral particles expressing codon-optimized human EGFR exon 20 insertion mutant V769_D770insASV and human ERBB2 exon20 insertion mutant A775_G776ins YVMA, respectively.
as §2, §3

HCC827 cells = test: Cell growth inhibition (CellTiter-Glo), HCC827; conditions: Homo sapiens, 72 h, 3 days
Procedure: as §2, §3

Row | GI50 [1] | GI50 [2] | GI50 (HCC827 cells) | Compound
1 | < 50 nM | < 50 nM | < 50 nM | C=CC(=O)N1CCC(c2c[nH]c3ncnc(Nc4ccc(OCc5ncco5)c(Cl)c4)c23)CC1 [Compound 95, 1-(4-(4-((3-chloro-4-(oxazol-2-ylmethoxy)phenyl)amino)-7H-pyrrolo[2,3-d]pyrimidin-5-yl)piperidin-1-yl)prop-2-en-1-one]
2 | 50 to 200 nM | < 50 nM | 200 to 1000 nM | C=CC(=O)N1CCC(c2c[nH]c3ncnc(Nc4ccc(Oc5ccnc(Nc6ccccc6)c5)cc4F)c23)CC1 [Compound 104, 1-(4-(4-((2-fluoro-4-((2-(phenylamino)pyridin-4-yl)oxy)phenyl)amino)-7H-pyrrolo[2,3-d]pyrimidin-5-yl)piperidin-1-yl)prop-2-en-1-one]
3 | 50 to 200 nM | 50 to 200 nM | – | C=CC(=O)N1CCC(c2n[nH]c3ncnc(Nc4ccc(Oc5ccnc(NC(=O)C(C)(C)C)c5)cc4F)c23)CC1 [Compound 192, N-(4-(4-((3-(1-acryloylpiperidin-4-yl)-1H-pyrazolo[3,4-d]pyrimidin-4-yl)amino)-3-fluorophenoxy)pyridin-2-yl)pivalamide]
4 | > 1000 nM | 200 to 1000 nM | – | C=CC(=O)N1CCC(c2c[nH]c3ncnc(Nc4ccc(Oc5ccnc(-c6cccc(F)c6)c5)cc4F)c23)CC1 [Compound 82, 1-(4-(4-((2-fluoro-4-((2-(3-fluorophenyl)pyridin-4-yl)oxy)phenyl)amino)-7H-pyrrolo[2,3-d]pyrimidin-5-yl)piperidin-1-yl)prop-2-en-1-one]
5 | < 50 nM | < 50 nM | – | C=CC(=O)N1CCC(c2c[nH]c3ncnc(Nc4ccc(OCc5cncc(OC)c5)c(Cl)c4)c23)CC1 [Compound 80, 1-(4-(4-((3-chloro-4-((5-methoxypyridin-3-yl)methoxy)phenyl)amino)-7H-pyrrolo[2,3-d]pyrimidin-5-yl)piperidin-1-yl)prop-2-en-1-one]
6 | 50 to 200 nM | 50 to 200 nM | – | C=CC(=O)N1CCC(c2c[nH]c3ncnc(Nc4ccc(OCc5cccc(C6CC6)n5)c(Cl)c4)c23)CC1 [Compound 88, 1-(4-(4-((3-chloro-4-((6-cyclopropylpyridin-2-yl)methoxy)phenyl)amino)-7H-pyrrolo[2,3-d]pyrimidin-5-yl)piperidin-1-yl)prop-2-en-1-one]
7 | 50 to 200 nM | 50 to 200 nM | – | C=CC(=O)N1CCC(c2c[nH]c3ncnc(Nc4ccc(OCc5cn(C(C)C)cn5)c(Cl)c4)c23)CC1 [Compound 85, 1-(4-(4-((3-chloro-4-((1-isopropyl-1H-imidazol-4-yl)methoxy)phenyl)amino)-7H-pyrrolo[2,3-d]pyrimidin-5-yl)piperidin-1-yl)prop-2-en-1-one]
8 | 50 to 200 nM | 50 to 200 nM | – | C=CC(=O)N1CCC(c2c[nH]c3ncnc(Nc4ccc(Oc5ccnc(N6CC(O)(C(C)C)C6)c5)cc4F)c23)CC1 [Compound 130, 1-[4-[4-[2-fluoro-4-[[2-(3-hydroxy-3-isopropyl-azetidin-1-yl)-4-pyridyl]oxy]anilino]-7H-pyrrolo[2,3-d]pyrimidin-5-yl]-1-piperidyl]prop-2-en-1-one]
9 | 50 to 200 nM | 50 to 200 nM | – | C=CC(=O)N1CCC(c2c[nH]c3ncnc(Nc4ccc(OCc5cnc(C(F)(F)F)s5)c(Cl)c4)c23)CC1 [Compound 87, 1-(4-(4-((3-chloro-4-((2-(trifluoromethyl)thiazol-5-yl)methoxy)phenyl)amino)-7H-pyrrolo[2,3-d]pyrimidin-5-yl)piperidin-1-yl)prop-2-en-1-one]

Further lines, the compound ahead of its results:

Row | Compound | GI50 [1] | GI50 [2] | GI50 (HCC827 cells)
10 | C=CC(=O)N1CCC(c2c[nH]c3ncnc(Nc4ccc(OCc5cccc(F)n5)c(Cl)c4)c23)CC1 [Compound 36, 1-(4-(4-((3-chloro-4-((6-fluoropyridin-2-yl)methoxy)phenyl)amino)-7H-pyrrolo[2,3-d]pyrimidin-5-yl)piperidin-1-yl)prop-2-en-1-one] | < 50 nM | < 50 nM | –
11 | C=CC(=O)N1CCC(c2c[nH]c3ncnc(Nc4ccc(OCc5nncs5)c(Cl)c4)c23)CC1 [Compound 52, 1-(4-(4-((4-((1,3,4-thiadiazol-2-yl)methoxy)-3-chlorophenyl)amino)-7H-pyrrolo[2,3-d]pyrimidin-5-yl)piperidin-1-yl)prop-2-en-1-one] | < 50 nM | < 50 nM | –
12 | C=CC(=O)N1CCC(c2c[nH]c3ncnc(Nc4ccc(OCc5cnc(Cn6cncn6)nc5)c(Cl)c4)c23)CC1 [Compound 47, 1-(4-(4-((4-((2-((1H-1,2,4-triazol-1-yl)methyl)pyrimidin-5-yl)methoxy)-3-chlorophenyl)amino)-7H-pyrrolo[2,3-d]pyrimidin-5-yl)piperidin-1-yl)prop-2-en-1-one] | < 50 nM | 50 to 200 nM | –
13 | C=CC(=O)N1CCC(c2c[nH]c3ncnc(Nc4ccc(Oc5ccnc(Nc6cccnc6)c5)cc4F)c23)CC1 [Compound 65, 1-(4-(4-((2-fluoro-4-((2-(pyridin-3-ylamino)pyridin-4-yl)oxy)phenyl)amino)-7H-pyrrolo[2,3-d]pyrimidin-5-yl)piperidin-1-yl)prop-2-en-1-one] | 200 to 1000 nM | 200 to 1000 nM | –
14 | C=CC(=O)N1CCC(c2c[nH]c3ncnc(Nc4ccc(Oc5ccnc(N6CCC(C(F)(F)F)C6)c5)c(Cl)c4)c23)CC1 (stereo not shown) [Compound 43, 1-[4-[4-[3-chloro-4-[[2-[3-(trifluoromethyl)pyrrolidin-1-yl]-4-pyridyl]oxy]anilino]-7H-pyrrolo[2,3-d]pyrimidin-5-yl]-1-piperidyl]prop-2-en-1-one] | 50 to 200 nM | 50 to 200 nM | –
15 | C=CC(=O)N1CCC(c2c[nH]c3ncnc(Nc4ccc(Oc5ccnc(-c6cccc(C(F)(F)F)c6)c5)cc4F)c23)CC1 [Compound 53, 1-(4-(4-((2-fluoro-4-((2-(3-(trifluoromethyl)phenyl)pyridin-4-yl)oxy)phenyl)amino)-7H-pyrrolo[2,3-d]pyrimidin-5-yl)piperidin-1-yl)prop-2-en-1-one] | 200 to 1000 nM | 200 to 1000 nM | –
16 | C=CC(=O)N1CCC(c2c[nH]c3ncnc(Nc4ccc(Oc5ccnc(Nc6ccccn6)c5)c(Cl)c4)c23)CC1 [Compound 49, 1-(4-(4-((3-chloro-4-((2-(pyridin-2-ylamino)pyridin-4-yl)oxy)phenyl)amino)-7H-pyrrolo[2,3-d]pyrimidin-5-yl)piperidin-1-yl)prop-2-en-1-one] | 50 to 200 nM | < 50 nM | –
17 | C=CC(=O)N1CCC(c2c[nH]c3ncnc(Nc4ccc(OCc5ccc6cc[nH]c6n5)c(Cl)c4)c23)CC1 [Compound 73, 1-(4-(4-((4-((1H-pyrrolo[2,3-b]pyridin-6-yl)methoxy)-3-chlorophenyl)amino)-7H-pyrrolo[2,3-d]pyrimidin-5-yl)piperidin-1-yl)prop-2-en-1-one] | < 50 nM | < 50 nM | –
18 | C=CC(=O)N1CCC(c2c[nH]c3ncnc(Nc4ccc(Oc5ccnc(C6CCC6)c5)cc4F)c23)CC1 [Compound 51, 1-(4-(4-((4-((2-cycloButylpyridin-4-yl)oxy)-2-fluorophenyl)amino)-7H-pyrrolo[2,3-d]pyrimidin-5-yl)piperidin-1-yl)prop-2-en-1-one] | 200 to 1000 nM | 200 to 1000 nM | –
19 | C=CC(=O)N1CCC(c2c[nH]c3ncnc(Nc4ccc(CN(C)c5cnccn5)c(Cl)c4)c23)CC1 [Compound 54, 1-(4-(4-((3-chloro-4-((methyl(pyrazin-2-yl)amino)methyl)phenyl)amino)-7H-pyrrolo[2,3-d]pyrimidin-5-yl)piperidin-1-yl)prop-2-en-1-one] | < 50 nM | < 50 nM | –
20 | C=CC(=O)N1CCC(c2c[nH]c3ncnc(Nc4ccc(Oc5ccnc(-c6ccn(C)n6)c5)cc4F)c23)CC1 [Compound 66, 1-(4-(4-((2-fluoro-4-((2-(1-methyl-1H-pyrazol-3-yl)pyridin-4-yl)oxy)phenyl)amino)-7H-pyrrolo[2,3-d]pyrimidin-5-yl)piperidin-1-yl)prop-2-en-1-one] | 200 to 1000 nM | 50 to 200 nM | –
21 | C=CC(=O)N1CCC(c2c[nH]c3ncnc(Nc4ccc(C(=O)Nc5ccccn5)cc4F)c23)CC1 [Compound 70, 4-((5-(1-acryloylpiperidin-4-yl)-7H-pyrrolo[2,3-d]pyrimidin-4-yl)amino)-3-fluoro-N-(pyridin-2-yl)benzamide] | < 50 nM | 50 to 200 nM | –
22 | C=CC(=O)N1CCC(c2c[nH]c3ncnc(Nc4ccc(OCc5cnn6c5CCCC6)c(Cl)c4)c23)CC1 [Compound 60, 1-(4-(4-((3-chloro-4-((4,5,6,7-tetrahydropyrazolo[1,5-a]pyridin-3-yl)methoxy)phenyl)amino)-7H-pyrrolo[2,3-d]pyrimidin-5-yl)piperidin-1-yl)prop-2-en-1-one] | 50 to 200 nM | 200 to 1000 nM | –
